In PubChem BioAssay (NCI):
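In this assay, cells in 96-well plates receive the compound at five concentrations for 48 hours. Endpoints are linearly interpolated between the surrounding concentrations. The concentration for 50% growth inhibition is given as GI50. The concentration for full growth arrest is given as TGI.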

What was measured:
Assay in all cases: inhibition of tumour cell growth, NCI panel, 48 h
[1] = tested on: 786-0 renal
[2] = tested on: A498 renal
[3] = tested on: A549 NSCLC
[4] = tested on: ACHN renal
[5] = tested on: BT-549 breast
[6] = tested on: CAKI-1 renal
[7] = tested on: CCRF-CEM leukemia
[8] = tested on: COLO 205 colon
[9] = tested on: DU-145 prostate
[10] = tested on: EKVX NSCLC
[11] = tested on: HCC-2998 colon
[12] = tested on: HCT-116 colon
[13] = tested on: HCT-15 colon
[14] = tested on: HL-60(TB) leukemia
[15] = tested on: HOP-62 NSCLC
[16] = tested on: HOP-92 NSCLC
[17] = tested on: HS 578T breast
[18] = tested on: HT29 colon
[19] = tested on: IGROV1 ovarian
[20] = tested on: K-562 leukemia
[21] = tested on: KM12 colon
[22] = tested on: M14 melanoma
[23] = tested on: MALME-3M melanoma
[24] = tested on: MCF7 breast
[25] = tested on: MDA-MB-231 breast
[26] = tested on: MDA-MB-435
[27] = tested on: MOLT-4 leukemia
[28] = tested on: NCI-H226 lung
[29] = tested on: NCI-H23 lung
[30] = tested on: NCI-H460 lung
[31] = tested on: NCI-H522 lung
[32] = tested on: NCI/ADR-RES ovarian
[33] = tested on: OVCAR-3 ovarian
[34] = tested on: OVCAR-4 ovarian
[35] = tested on: OVCAR-5 ovarian
[36] = tested on: OVCAR-8 ovarian
[37] = tested on: PC-3 prostate
[38] = tested on: RPMI-8226 leukemia
[39] = tested on: RXF 393 renal
[40] = tested on: SF-268 CNS
[41] = tested on: SF-295 CNS
[42] = tested on: SF-539 CNS
[43] = tested on: SK-MEL-2 melanoma
[44] = tested on: SK-MEL-28 melanoma
[45] = tested on: SK-MEL-5 melanoma
[46] = tested on: SK-OV-3 ovarian
[47] = tested on: SN12C renal
[48] = tested on: SNB-19 CNS
[49] = tested on: SNB-75 CNS
[50] = tested on: SR leukemia
[51] = tested on: SW-620 colon
[52] = tested on: T-47D breast
[53] = tested on: TK-10 renal
[54] = tested on: U251 CNS
[55] = tested on: UACC-257 melanoma
[56] = tested on: UACC-62 melanoma
[57] = tested on: UO-31 renal

COc1cc(/C=C/C(=O)c2cc(OC)c(OC)c(OC)c2)ccc1OCc1ccc(F)cc1
GI50 [1]: 7.22 µM | TGI [1]: > 100 µM | GI50 [2]: 48 µM | TGI [2]: > 100 µM | GI50 [3]: 3.11 µM | TGI [3]: > 100 µM | GI50 [4]: 4.92 µM | TGI [4]: > 100 µM | GI50 [5]: 3.36 µM | TGI [5]: 15.5 µM | GI50 [6]: 4.35 µM | TGI [6]: > 100 µM | GI50 [7]: 3.13 µM | TGI [7]: > 100 µM | GI50 [8]: 5.27 µM | TGI [8]: > 100 µM | GI50 [9]: 3.72 µM | TGI [9]: > 100 µM | GI50 [10]: 18.4 µM | TGI [10]: > 100 µM | GI50 [11]: 2.94 µM | TGI [11]: 8.17 µM | GI50 [12]: 2.85 µM | TGI [12]: > 100 µM | GI50 [13]: 2.66 µM | TGI [13]: > 100 µM | GI50 [14]: 2.73 µM | TGI [14]: > 100 µM | GI50 [15]: 3.64 µM | TGI [15]: 37.6 µM | GI50 [16]: 2.15 µM | TGI [16]: 8.99 µM | GI50 [17]: 6.03 µM | TGI [17]: 84.2 µM | GI50 [18]: 3.43 µM | TGI [18]: > 100 µM | GI50 [19]: 3.38 µM | TGI [19]: > 100 µM | GI50 [20]: 2.94 µM | TGI [20]: > 100 µM | GI50 [21]: 4.95 µM | TGI [21]: > 100 µM | GI50 [22]: 5.74 µM | TGI [22]: > 100 µM | GI50 [23]: 6 µM | TGI [23]: > 100 µM | GI50 [24]: 2.45 µM | TGI [24]: > 100 µM | GI50 [25]: 2.96 µM | TGI [25]: 24.6 µM | GI50 [26]: 3.6 µM | TGI [26]: > 100 µM | GI50 [27]: 3.14 µM | TGI [27]: > 100 µM | GI50 [28]: 3.48 µM | TGI [28]: > 100 µM | GI50 [29]: 5.29 µM | TGI [29]: > 100 µM | GI50 [30]: 4.56 µM | TGI [30]: > 100 µM | GI50 [31]: 2.31 µM | TGI [31]: 15.5 µM | GI50 [32]: 4.2 µM | TGI [32]: > 100 µM | GI50 [33]: 3.84 µM | TGI [33]: > 100 µM | GI50 [34]: 3.62 µM | TGI [34]: > 100 µM | GI50 [35]: 3.9 µM | TGI [35]: > 100 µM | GI50 [36]: 2.88 µM | TGI [36]: 16.6 µM | GI50 [37]: 3.67 µM | TGI [37]: > 100 µM | GI50 [38]: 1.68 µM | TGI [38]: > 100 µM | GI50 [39]: 3.4 µM | TGI [39]: 49.8 µM | GI50 [40]: 4.8 µM | TGI [40]: > 100 µM | GI50 [41]: 3.65 µM | TGI [41]: > 100 µM | GI50 [42]: 2.12 µM | TGI [42]: 5.13 µM | GI50 [43]: 8.57 µM | TGI [43]: 64.4 µM | GI50 [44]: 6.52 µM | TGI [44]: > 100 µM | GI50 [45]: 3.41 µM | TGI [45]: 26.3 µM | GI50 [46]: 3.61 µM | TGI [46]: 54.6 µM | GI50 [47]: 2.73 µM | TGI [47]: 15.4 µM | GI50 [48]: 4 µM | TGI [48]: > 100 µM | GI50 [49]: 2.06 µM | TGI [49]: 7.48 µM | GI50 [50]: 1.73 µM | TGI [50]: > 100 µM | GI50 [51]: 4.31 µM | TGI [51]: > 100 µM | GI50 [52]: 3.22 µM | TGI [52]: > 100 µM | GI50 [53]: 16.6 µM | TGI [53]: > 100 µM | GI50 [54]: 3.74 µM | TGI [54]: > 100 µM | GI50 [55]: 3.82 µM | TGI [55]: > 100 µM | GI50 [56]: 3.15 µM | TGI [56]: 52.3 µM | GI50 [57]: 3.88 µM | TGI [57]: > 100 µM
